The target in assay [1] is T1, Histone deacetylase (Homo sapiens) (UniProt Q13547+O15379+Q9UBN7+Q92769+Q9UQL6+Q8WUI4+Q9BY41+Q96DB2+P56524+Q9UKV0+Q969S8). Put plainly: Inhibition of HDAC in human U937 cells assessed as slight increase in histone H3 acetylation at 50 uM after 24 hrs by western blot analysis. It counts as cell-based. The conditions noted are these: U-937. For orientation: A western blot detects proteins with antibodies after separation by electrophoresis.

The target of assay [2] is T1, Histone deacetylase (Homo sapiens). Put plainly: Inhibition of HDAC in human U937 cells assessed as slight increase in alpha tubulin acetylation at 50 uM after 24 hrs by western blot analysis. Format: cell-based. The conditions noted are these: U-937.
Assay [3] concerns U-937. As to the kind of experiment: Cell cycle arrest in human U937 cells assessed as block in S phase at 50 uM after 30 hrs by propidium iodide staining based flow cytometry. Format: functional. (In general: A flow cytometer gives signals particle by particle.)
The target of assay [4] is T1, Histone deacetylase (Homo sapiens). As to the kind of experiment: Inhibition of HDAC in human U937 cells assessed as increase in histone H3 acetylation at 50 uM after 24 hrs by western blot analysis. It counts as cell-based. As to conditions: U-937.
Assay [5] has the same target. Put plainly: Inhibition of HDAC in human U937 cells assessed as increase in alpha tubulin acetylation at 50 uM after 24 hrs by western blot analysis. It counts as cell-based. The conditions noted are these: U-937.
The test system of assay [6] is U-937. Put plainly: Induction of apoptosis in human U937 cells at 50 uM after 30 hrs by caspase 3-7 activation method based FACS analysis. Format: functional.
In assay [7] the test system is U-937. As to the kind of experiment: Induction of apoptosis in human U937 cells after 30 hrs by caspase 3-7 activation method based FACS analysis. Format: functional, cell-based.
Assay [8] deals with U-937. As to the kind of experiment: Induction of granulocytic differentiation in human U937 cells assessed as CD11c positive/propidium iodide negative cells after 30 hrs by FACS analysis. Format: functional, cell-based.
Assay [9] deals with U-937. As to the kind of experiment: Induction of granulocytic differentiation in human U937 cells assessed as CD11c positive/propidium iodide negative cells at 50 uM after 30 hrs by FACS analysis. Format: functional.

Calls of active or inactive are those of the source. No cut-off for these calls is given here.

On to `COC(=O)c1cc(OCCCCCCCOc2ccc(NC(=O)Cc3ccccc3)cc2)cc(C(=O)OC)n1`, for which the inhibition entry in assay [1] and in assay [2] was “inactive” in each case. The result in assay [3] was Active.
In the case of `O=C(O)c1cc(OCCCSc2nc(-c3ccccc3)cc(=O)[nH]2)cc(C(=O)O)n1`, the inhibition entry in [1] and in [2] was “inactive” each time. For the same compound, the outcome in assay [3] was inactive.
In the case of `COC(=O)c1cc(OCCCCCSc2nc(-c3ccccc3)cc(=O)[nH]2)cc(C(=O)OC)n1`, the inhibition result in assay [4] and in [5] was “Active” each time. The Activity result in assay [3] was “<=50%”; in [6], “<=50%”; in [7], “Dose-dependent effect”.
With `O=C(O)c1cc(OCCCCCSc2nc(-c3ccccc3)cc(=O)[nH]2)cc(C(=O)O)n1`, the inhibition result in [1] and in assay [2] was “inactive” in each case. In addition, the outcome in assay [3] was inactive.
As to `COC(=O)c1cc(OCCSc2nc(-c3ccccc3)cc(=O)[nH]2)cc(C(=O)OC)n1`, the inhibition entry in assay [4] and in assay [5] was “Active” in each case. Also, the figures for the Activity entry in assay [3], in assay [6] and in [7] were “<=50%”, “<=50%” and “Dose-dependent effect”, respectively.
Take `COC(=O)c1cc(OCc2ccc(NC(=O)Cc3ccccc3)cc2)cc(C(=O)OC)n1`: the inhibition entry in [1] and in [2] was “inactive” each time. Moreover, the result in [3] was Active.
For the compound `COC(=O)c1cc(OCCOc2ccc(NC(=O)Cc3ccccc3)cc2)cc(C(=O)OC)n1`, the inhibition entry in assay [1] and in assay [2] was “inactive” each time. In [3], the result was Active.
`O=C(O)c1cc(OCCSc2nc(-c3ccccc3)cc(=O)[nH]2)cc(C(=O)O)n1`: the inhibition result in assay [1] and in assay [2] was “inactive” throughout. The result in [3] was inactive.
On to `COC(=O)c1cc(OCCCCSc2nc(-c3ccccc3)cc(=O)[nH]2)cc(C(=O)OC)n1`, for which the inhibition entry in assay [4] and in assay [5] was “Active” each time. In addition, the Activity result was “<=50%” in assay [3], “<=50%” in [6] and “Dose-dependent effect” in [7].
`COC(=O)c1cc(OCCCCOc2ccc(NC(=O)Cc3ccccc3)cc2)cc(C(=O)OC)n1`: the inhibition result in [1] and in [2] was “inactive” each time. Moreover, the result in assay [3] was Active.
With `O=C(O)c1cc(OCCCCSc2nc(-c3ccccc3)cc(=O)[nH]2)cc(C(=O)O)n1`, the inhibition entry in assay [1] and in [2] was “inactive” in each case. In addition, the outcome in [3] was inactive.
With `COC(=O)c1cc(OCCCCCCOc2ccc(NC(=O)Cc3ccccc3)cc2)cc(C(=O)OC)n1`, the inhibition entry in assay [1] and in [2] was “inactive” throughout. In assay [3], the outcome was Active.
Regarding `COC(=O)c1cc(OCCCOc2ccc(NC(=O)Cc3ccccc3)cc2)cc(C(=O)OC)n1`, the inhibition entry in assay [1] and in [2] was “inactive” throughout. Also, in assay [3], the outcome was Active.
As to `COC(=O)c1cc(OCCCSc2nc(-c3ccccc3)cc(=O)[nH]2)cc(C(=O)OC)n1`, the inhibition result in [1] and in [2] was “inactive” in each case.
Consider `COC(=O)c1cc(OCCCCCOc2ccc(NC(=O)Cc3ccccc3)cc2)cc(C(=O)OC)n1`, for which the inhibition result in assay [1] and in [2] was “inactive” each time. Further, in assay [3], the outcome was Active.
On to `COC(=O)c1cc(OCCCCC(=O)Nc2ccccc2)cc(C(=O)OC)n1`, for which the inhibition entry in assay [1] and in assay [2] was “inactive” each time. For the same compound, in assay [3], the result was Active.
Regarding `COC(=O)c1cc(OCCCCCCCCOc2ccc(NC(=O)Cc3ccccc3)cc2)cc(C(=O)OC)n1`, the inhibition result in assay [1] and in assay [2] was “inactive” in each case. Also, in assay [3], the outcome was Active.
`COC(=O)c1cc(Oc2ccc(NC(=O)Cc3ccccc3)cc2)cc(C(=O)OC)n1`: the inhibition result in assay [1] and in assay [2] was “inactive” in each case. In [3], the outcome was Active. Moreover, the figures for the Activity entry in [8] and in assay [9] were “Dose-dependent effect” and “<=40%”, respectively.

(Values after ChEMBL document CHEMBL3217483, “Developing novel non-hydroxamate histone deacetylase inhibitors: the chelidamic warhead” (2012).)
